This note sets out measurements from patent publication US12458677B2, “Method for preparing Gynostemma pentaphyllum leaf extract and Gynostemma pentaphyllum leaf extract prepared thereby” (BIONIC TRADING CORPORATION, priority 2022, dated 2025).

The test system of experiment [1] is MuRF-1. Briefly: MuRF-1 mRNA expression (RT-PCR) in TNF-α-treated L6 myotubes. It counts as cell-based. As to conditions: TNF-α 50 ng/ml alone, 6 hours. The method, then:
(§1) L6 myoblasts (ATCC) were seeded onto a 6-well plate at 2×10^5 cell/mL and then cultured in DMEM (Hyclone) containing 10% FBS (Hyclone). When the cell density reached about 80-85%, the L6 cells were differentiated into myotubes by removing the medium from the well and replacing with DMEM (Hyclone) containing 2% HS (Hyclone). The differentiation was conducted for a total of 6 days while replacing with a fresh medium every other day. After the differentiation, the Gynostemma pentaphyllum leaf extract of Examples or Comparative Example was dissolved in DMEM containing 50 ng/mL of TNF-α to a concentration of 40 μg/mL and treated to the cells. 6 hours later, total RNAs were isolated using a TRIzol reagent (Takara, Osaka, Japan). The isolated total RNAs were quantified using NanoDrop 1000 (Thermo Fisher Scientific Inc., Waltham, MA, USA). 16 μL of the quantified RNAs were mixed with a reverse transcriptase premix (ELPIS-Biotech) and cDNAs were synthesized under the condition of 55 minutes at 42° C. and 15 minutes at 70° C. using a PCR machine (Gene Amp PCR System 2700; Applied Biosystems, Foster City, CA, USA). […]

Experiment [2] has as its system Atrogin-1. Briefly: Atrogin-1 mRNA expression (RT-PCR) in TNF-α-treated L6 myotubes. As to conditions: TNF-α 50 ng/ml alone, 6 hours. It counts as cell-based. The method, then:
as §1

As to TNF-α, in experiment [1], the “MuRF-1 (% of control group)” value is recorded as 411.5 ± 32.7 % of control group. Besides, the “Atrogin-1 (% of control group)” value in experiment [2] is on record as 248.5 ± 26.4 % of control group.
